According to patent US10022422B2, “Peptidomimetic macrocycles” (priority 2009, dated 2018):
Like-named read-outs stand apart in the source and are kept apart here. Where a SMILES comes first, the peptide text is derived from it. Bridges are numbered along the chain shown (N, C = ends). [ ]: non-standard residue; d: D form. R8 = C=CCCCCCC[C@@](C)(N)C(=O)O; S5 = C=CCCC[C@](C)(N)C(=O)O; Nle = CCCC[C@H](N)C(=O)O; Aib = CC(C)(N)C(=O)O

What was measured:
Figure 6 = test: Figure 6; parameters: AUC,all / AUC,inf: concentration or dose not given beside the values
Description: Table printed on a drawing sheet, Figure 6
First reader's note: The head SP-2 is printed shifted to the left of its column of values.

| Compound | AUC,inf [ng·h/mL] | AUC,last [ng·h/mL] | Cl [mL/h/kg] | MRT [h] | T1/2 [h] | Vss [mL/kg] | AUC,all (Figure 6) [ng·h/mL] | AUC,inf (Figure 6) [ng·h/mL] | Cl (Figure 6) [mL/h/kg] | Cmax, obs (Figure 6) [ng/mL] | MRT (Figure 6) [min] | T1/2 (Figure 6) [min] | Vss (Figure 6) [mL/kg] |
| --- | --- | --- | --- | --- | --- | --- | --- | --- | --- | --- | --- | --- | --- |
| CCCC[C@H](NC(C)=O)C(=O)N[C@@H](CC(=O)O)C(=O)N[C@H](C(=O)N[C@@H](CC(N)=O)C(=O)NC(C)(C)C(=O)N[C@H](C(=O)N[C@@H](CC(C)C)C(=O)N[C@@H](CC(C)C)C(=O)N[C@@H](Cc1ccccc1)C(=O)N[C@@]1(C)CCCC=CCCC[C@@](C)(C(=O)N[C@@H](CCC(N)=O)C(N)=O)NC(=O)[C@H](C)NC(=O)[C@H](C(C)C)NC(=O)[C@H](CCCCN)NC1=O)[C@@H](C)O)C(C)C (single isomer, unassigned) [SP-8 IV Dose] | 46700 | 46600 | 63 | 2 | 1 | 105 |  |  |  |  |  |  |  |
| CCCC[C@H](NC(C)=O)C(=O)N[C@@H](CC(=O)O)C(=O)N[C@H](C(=O)N[C@@H](CC(N)=O)C(=O)N1CCC[C@H]1C(=O)N[C@H](C(=O)N[C@@H](CC(C)C)C(=O)N[C@@H](CC(C)C)C(=O)N[C@@H](Cc1ccccc1)C(=O)N[C@@]1(C)CCCC=CCCC[C@@](C)(C(=O)N[C@@H](CCCNC(=N)N)C(N)=O)NC(=O)[C@H](C)NC(=O)[C@H](C(C)C)NC(=O)[C@H](CCCCN)NC1=O)[C@@H](C)O)C(C)C [SP-11, Ac-NleDVNPTLLF$KVA$R-NH2] (Ac-[Nle]DVNPTLLF[S5]KVA[S5]R-NH2; staple 10-14) |  |  |  |  |  |  | 9065 | 9100 | 340 | 18748 | 31.2 | 32.4 | 178 |
| CCCC[C@H](NC(C)=O)C(=O)N[C@@H](CC(=O)O)C(=O)N[C@H](C(=O)N[C@@H](CC(N)=O)C(=O)NC(C)(C)C(=O)N[C@H](C(=O)N[C@]1(C)CCCCCCC=CCCC[C@@](C)(C(=O)N[C@@H](CCCNC(=N)N)C(N)=O)NC(=O)[C@H](C)NC(=O)[C@H](C(C)C)NC(=O)[C@H](CCCCN)NC(=O)[C@H](CC(C)C)NC(=O)[C@H](Cc2ccccc2)NC(=O)[C@H](CC(C)C)NC1=O)[C@@H](C)O)C(C)C [SP-15, Ac-NlcDVNAibT$r8LFLKVA$R-NH2] (Ac-[Nle]DVN[Aib]T[R8]LFLKVA[S5]R-NH2; staple 7-14) |  |  |  |  |  |  | 23300 | 25410 | 118 | 26524 | 115 | 89.4 | 226 |
| CCCC[C@H](NC(C)=O)C(=O)N[C@@H](CC(=O)O)C(=O)N[C@H](C(=O)N[C@@H](CC(N)=O)C(=O)N1CCC[C@H]1C(=O)N[C@H](C(=O)N[C@@H](CC(C)C)C(=O)N[C@@H](CC(C)C)C(=O)N[C@@H](Cc1ccccc1)C(=O)N[C@@H](CC(C)C)C(=O)N[C@@H](CCCCN)C(=O)N[C@H](C(=O)N1CCC[C@H]1C(=O)N[C@@H](C)C(=O)N[C@@H](CCC(N)=O)C(N)=O)C(C)C)[C@@H](C)O)C(C)C [SP-1, Ac-NleDVNPTLLFLKVPAQ-NH2] |  |  |  |  |  |  | 1606 | 1616 | 1873 | 7742 | 7.8 | 9.6 | 241 |
| CCCC[C@H](NC(C)=O)C(=O)N[C@@H](CC(=O)O)C(=O)N[C@H](C(=O)N[C@@H](CC(N)=O)C(=O)N1CCC[C@H]1C(=O)N[C@H](C(=O)N[C@@H](CC(C)C)C(=O)N[C@@]1(C)CCCC=CCCC[C@@](C)(C(=O)N[C@@H](C)C(=O)N[C@@H](C)C(=O)N[C@@H](CCC(N)=O)C(N)=O)NC(=O)[C@H](CCCCN)NC(=O)[C@H](CC(C)C)NC(=O)[C@H](Cc2ccccc2)NC1=O)[C@@H](C)O)C(C)C [SP-10, Ac-NleDVNPTL$FLK$AAQ-NH2] (Ac-[Nle]DVNPTL[S5]FLK[S5]AAQ-NH2; staple 8-12) |  |  |  |  |  |  | 5770 | 5800 | 531 | 11408 | 33 | 33.6 | 290 |
| CCCC[C@H](NC(C)=O)C(=O)N[C@@H](CC(=O)O)C(=O)N[C@H](C(=O)N[C@@H](CC(N)=O)C(=O)NC(C)(C)C(=O)N[C@H](C(=O)N[C@@H](CC(C)C)C(=O)N[C@@H](CC(C)C)C(=O)N[C@@H](Cc1ccccc1)C(=O)N[C@@H](CC(C)C)C(=O)N[C@@H](CCCCN)C(=O)N[C@H](C(=O)NC(C)(C)C(=O)N[C@@H](C)C(=O)N[C@@H](CCC(N)=O)C(N)=O)C(C)C)[C@@H](C)O)C(C)C [SP-2, Ac-NleDVNAibTLLFLKVAibAQ-NH2] (Ac-[Nle]DVN[Aib]TLLFLKV[Aib]AQ-NH2) |  |  |  |  |  |  | 3360 | 3385 | 899 | 8145 | 24.6 | 19.8 | 366 |
| CCCC[C@H](NC(C)=O)C(=O)N[C@@H](CC(=O)O)C(=O)N[C@H](C(=O)N[C@@H](CC(N)=O)C(=O)NC(C)(C)C(=O)N[C@H](C(=O)N[C@@H](CC(C)C)C(=O)N[C@@]1(C)CCCC=CCCC[C@@](C)(C(=O)N[C@@H](C)C(=O)N[C@@H](C)C(=O)N[C@@H](CCC(N)=O)C(N)=O)NC(=O)[C@H](CCCCN)NC(=O)[C@H](CC(C)C)NC(=O)[C@H](Cc2ccccc2)NC1=O)[C@@H](C)O)C(C)C [SP-9, Ac-NleDVNAibTL$FLK$AAQ-NH2] (Ac-[Nle]DVN[Aib]TL[S5]FLK[S5]AAQ-NH2; staple 8-12) |  |  |  |  |  |  | 8190 | 11950 | 340 | 9766 | 84.6 | 95.4 | 363 |
| CCCC[C@H](NC(C)=O)C(=O)N[C@@H](CC(=O)O)C(=O)N[C@H](C(=O)N[C@@H](CC(N)=O)C(=O)NC(C)(C)C(=O)N[C@H](C(=O)N[C@@H](CC(C)C)C(=O)N[C@@H](CC(C)C)C(=O)N[C@@H](Cc1ccccc1)C(=O)N[C@@]1(C)CCCC=CCCC[C@@](C)(C(=O)N[C@@H](CCCNC(=N)N)C(N)=O)NC(=O)[C@H](C)NC(=O)[C@H](C(C)C)NC(=O)[C@H](CCCCN)NC1=O)[C@@H](C)O)C(C)C [SP-6, Ac-NleDVNAibTLLF$KVA$R-NH2] (Ac-[Nle]DVN[Aib]TLLF[S5]KVA[S5]R-NH2; staple 10-14) |  |  |  |  |  |  | 10894 | 10976 | 279 | 12564 | 75 | 77.4 | 348 |
| CCCC[C@H](NC(C)=O)C(=O)N[C@@H](CC(=O)O)C(=O)N[C@H](C(=O)N[C@@H](CC(N)=O)C(=O)NC(C)(C)C(=O)N[C@H](C(=O)N[C@@H](CC(C)C)C(=O)N[C@@H](CC(C)C)C(=O)N[C@@H](Cc1ccccc1)C(=O)N[C@@]1(C)CCCC=CCCC[C@@](C)(C(=O)N[C@@H](CCC(N)=O)C(N)=O)NC(=O)[C@H](C)NC(=O)[C@H](C(C)C)NC(=O)[C@H](CCCCN)NC1=O)[C@@H](C)O)C(C)C (single isomer, unassigned) [SP-8 Subcutaneous] | 10200 | 9690 | 275 | 13 | 10 | 3629 |  |  |  |  |  |  |  |
